For 9 compounds, Ki results are on record in US10189836B2, “Therapeutic compounds, compositions and methods of use thereof” (Genentech, Inc., priority 2015, dated 2019).

Assay [1] concerns the target isolated recombinant JAK2 kinase domain (Homo sapiens (Human), UniProt O60674). The assay is described as follows: JAK2 enzyme assay (Caliper LabChip, Ki). It is filed as biochemical. As to conditions: isolated recombinant JAK2 kinase domain, 0.2 nM enzyme, ATP 25 μM.
Assay [2] addresses isolated recombinant JAK1 kinase domain (Homo sapiens (Human), UniProt P23458). In words: JAK1 enzyme assay (Caliper LabChip, Ki). It is filed as biochemical. The conditions noted are these: isolated recombinant JAK1 kinase domain, 1.5 nM enzyme, ATP 25 μM.

Structures are written as SMILES.

A word on the Ki: it is a dissociation constant, usually derived from enzyme kinetics or from competition with a known ligand.

Chain of isolated recombinant JAK2 kinase domain (O60674 849-1124): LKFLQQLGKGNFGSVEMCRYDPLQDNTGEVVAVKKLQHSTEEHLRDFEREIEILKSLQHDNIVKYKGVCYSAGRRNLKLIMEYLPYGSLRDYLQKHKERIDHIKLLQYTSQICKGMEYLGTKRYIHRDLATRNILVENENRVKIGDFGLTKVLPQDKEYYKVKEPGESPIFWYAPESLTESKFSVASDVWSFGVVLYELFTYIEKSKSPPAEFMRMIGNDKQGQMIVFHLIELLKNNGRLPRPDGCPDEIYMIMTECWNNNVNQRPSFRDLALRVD
Chain of isolated recombinant JAK1 kinase domain (P23458 875-1153): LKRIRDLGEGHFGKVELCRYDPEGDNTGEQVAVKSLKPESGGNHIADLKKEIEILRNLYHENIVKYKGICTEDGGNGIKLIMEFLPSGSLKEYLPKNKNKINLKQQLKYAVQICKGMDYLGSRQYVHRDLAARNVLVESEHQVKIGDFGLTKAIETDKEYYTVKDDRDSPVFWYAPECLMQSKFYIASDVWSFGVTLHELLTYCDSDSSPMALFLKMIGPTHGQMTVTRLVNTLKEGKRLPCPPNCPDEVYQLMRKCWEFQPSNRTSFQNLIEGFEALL

For `CN1CCN(C(=O)Cn2cc(Nc3nc4c(N5CC6CCC(C5)N6S(=O)(=O)c5cccs5)cccn4n3)cn2)CC1` [Example 112, 1-(4-methylpiperazin-1-yl)-2-[4-[[8-[8-(2-thienylsulfonyl)-3,8-diazabicyclo[3.2.1]octan-3-yl]-[1,2,4]triazolo[1,5-a]pyridin-2-yl]amino]pyrazol-1-yl]ethanone], the Ki in assay [1] stood at 0.7 nM; in assay [2], 0.5 nM.
As for `CN1CCN(C(=O)Cn2cc(Nc3nc4c(N5CC6CCC(C5)N6c5ccc(Cl)cc5)cccn4n3)cn2)CC1` [Example 113, 2-[4-[[8-[8-(4-chlorophenyl)-3,8-diazabicyclo[3.2.1]octan-3-yl]-[1,2,4]triazolo[1,5-a]pyridin-2-yl]amino]pyrazol-1-yl]-1-(4-methylpiperazin-1-yl)ethanone], the Ki worked out at 0.3 nM in assay [1] and 0.2 nM in assay [2].
On the same counts, the results for `CN1CCN(C(=O)Cn2cc(Nc3nc4c(N5CC6CCC(C5)N6C(=O)c5ccccc5Cl)cccn4n3)cn2)CC1` [Example 114] are 4.8 nM and 1.7 nM.
For `CSc1ccccc1C(=O)N1C2CCC1CN(c1cccn3nc(Nc4cnn(CC(=O)N5CCN(C)CC5)c4)nc13)C2` [Example 115] the same measures were 2.1 nM and 1 nM.
For `CN1CCN(C(=O)Cn2cc(Nc3nc4c(N5CC6CCC(C5)N6C(=O)C5(C#N)CCC5)cccn4n3)cn2)CC1` [Example 116, 1-[3-[2-[[1-[2-(4-methylpiperazin-1-yl)-2-oxo-ethyl]pyrazol-4-yl]amino]-[1,2,4]triazolo[1,5-a]pyridin-8-yl]-3,8-diazabicyclo[3.2.1]octane-8-carbonyl]cyclobutane-carbonitrile] the same measures were 3.5 nM and 2.5 nM.
For `CCc1cnn([C@@]2(CC#N)[C@@H]3CC[C@H]2CN(c2cccn4nc(Nc5cnn(CC(=O)N6CCN(C)CC6)c5)nc24)C3)c1` [Example 117, 2-[(1R,5S)-8-(4-ethylpyrazol-1-yl)-3-[2-[[1-[2-(4-methylpiperazin-1-yl)-2-oxo-ethyl]pyrazol-4-yl]amino]-[1,2,4]triazolo[1,5-a]pyridin-8-yl]-3-azabicyclo[3.2.1]octan-8-yl]acetonitrile], the Ki in assay [1] is 24.2 nM; in assay [2] it was 18.3 nM.
As for `CN1CCN(C(=O)Cn2cc(Nc3nc4c(N5CC6CCC(C5)C6=CC#N)cccn4n3)cn2)CC1` [Example 118, 2-[3-[2-[[1-[2-(4-methylpiperazin-1-yl)-2-oxo-ethyl]pyrazol-4-yl]amino]-[1,2,4]triazolo[1,5-a]pyridin-8-yl]-3-azabicyclo[3.2.1]octan-8-ylidene]acetonitrile], the results for the Ki in assay [1] and in assay [2] were 1.5 nM and 0.5 nM, respectively.
For `N#CC1(CNC2CCN(C(=O)Cn3cc(Nc4nc5c(N6CC7CCC(C6)N7C(=O)N6CC(C(F)(F)F)C6)cccn5n4)cn3)CC2)CC1` [Example 119, 1-[[[1-[2-[4-[[8-[8-[3-(trifluoromethyl)azetidine-1-carbonyl]-3,8-diazabicyclo[3.2.1]octan-3-yl]-[1,2,4]triazolo[1,5-a]pyridin-2-yl]amino]pyrazol-1-yl]acetyl]-4-piperidyl]amino]methyl] cyclopropanecarbonitrile] the same measures were 0.8 nM and 0.8 nM.
For `CC(F)(F)CNC1CCN(C(=O)Cn2cc(Nc3nc4c(N5CC6CCC(C5)N6C(=O)N5CC(C(F)(F)F)C5)cccn4n3)cn2)CC1` [Example 120, 1-[4-(2,2-difluoropropylamino)-1-piperidyl]-2-[4-[[8-[8-[3-(trifluoromethyl)azetidine-1-carbonyl]-3,8-diazabicyclo[3.2.1]octan-3-yl]-[1,2,4]triazolo[1,5-a]pyridin-2-yl]amino]pyrazol-1-yl]ethanone] the same measures were 0.7 nM and 0.6 nM.
